Assay results taken from patent US6953813B1, “2-Aminotetralin derivatives for the therapy of glaucoma” (Chiesi Farmaceutici S.p.A., priority 1999, dated 2005).

Experiments:
[1] = in vivo; cited from earlier work
[2] = tested on: rabbit; settings: cited from earlier work; for effect on intraocular pressure: ophthalmic drops
[3] = tested on: normotensive Dutch Belted rabbits; assay: Intraocular pressure (IOP) after single dose in normotensive rabbits; assay type: in vivo, rabbit; settings: 0.2% w/v
Protocol: Water (pH 4.5, made isotonic with sodium chloride), was selected as vehicle for the IOP-studies.
Five concentrations (0.01, 0.05, 0.2, 0.5 and 1.0% w/v) of CHF 1035 were studied. Brimonidine (0.2% w/v) was used as a positive, and vehicle (water pH 4.5) as a negative control.
The experimental animals used were normotensive Dutch Belted rabbits of either gender (n=6). A single drop (25 μl) of the test solution was instilled unilaterally into the left eye (treated eye). IOP of the rabbits (treated and untreated eyes) was measured at 1 and 0 h before, and at 0.5, 1, 2, 3, 4, 5, 6 and 7 h after topical eyedrop administration. IOP at the time of eyedrop administration (0 h) was used as a baseline value. IOP was measured using a BioRad Pneumatonometer. More detailed description of the IOP measurement procedure can be found in Pharm. Res. 14, 1738-1743, 1997 and Curr. Eye Res. 14, 791-797, 1995. All the studies were set up using a randomized crossover design. At least 72 h of wash-out time was allowed for each rabbit between dosings. The irritation caused by an instilled eyedrop were evaluated by recording the extent of eyelid closure after topical eyedrop administration.

Question: For `CCCN(CCc1cccs1)C1CCc2c(O)cccc2C1` (stereo not drawn) [2-(N-propyl-N-2-thienylethylamino)-5-hydroxytetralin], which ocular side effects [1] is on record?
Answer: The ocular side effects was “can also induce eye irritation”.

Question: Which “effect on intraocular pressure” value [2] does the source give for `NC1CCc2cc(O)c(O)cc2C1` (stereo not drawn) [6,7-dihydroxy-2-aminotetralin] here?
Answer: The value was “gives rise to eye hypotension in the rabbit”.

Question: With `Brc1c(NC2=NCCN2)ccc2nccnc12` [Brimonidine, reference compound] as the molecule, how does the “IOP changes (mean ± SEM) in the treated eye” value ([3]; 0 min) read?
Answer: The value was 0.0 ± 0.0 mmHg.

Question: And the “IOP changes (mean ± SEM) in the treated eye” value ([3]; 30 min)?
Answer: Its value is −2.7 ± 0.9 mmHg.

Question: And the “IOP changes (mean ± SEM) in the treated eye” value ([3]; 60 min)?
Answer: The value was −7.8 ± 0.9 mmHg.

Question: And the “IOP changes (mean ± SEM) in the treated eye” value ([3]; 120 min)?
Answer: The value was −6.2 ± 1.4 mmHg.

Question: And the “IOP changes (mean ± SEM) in the treated eye” value ([3]; 180 min)?
Answer: Its value is −3.9 ± 0.8 mmHg.

Question: What about the “IOP changes (mean ± SEM) in the treated eye” value ([3]; 240 min) of the same molecule?
Answer: Its value is −3.4 ± 0.7 mmHg.

Question: What about the “IOP changes (mean ± SEM) in the treated eye” value ([3]; 300 min) of the same molecule?
Answer: The value was −2.4 ± 0.7 mmHg.

Question: And the “IOP changes (mean ± SEM) in the treated eye” value ([3]; 360 min)?
Answer: Its value is −0.4 ± 0.6 mmHg.

Question: And the “IOP changes (mean ± SEM) in the treated eye” value ([3]; 420 min)?
Answer: The value was 0.2 ± 0.3 mmHg.

Question: And the “IOP changes (mean ± SEM) in the untreated eye” value ([3]; 0 min)?
Answer: Its value is 0.0 ± 0.0 mmHg.

Question: What about the “IOP changes (mean ± SEM) in the untreated eye” value ([3]; 30 min) of the same molecule?
Answer: The value was −3.2 ± 1.2 mmHg.

Question: What about the “IOP changes (mean ± SEM) in the untreated eye” value ([3]; 60 min) of the same molecule?
Answer: The value was −8.7 ± 0.8 mmHg.

Question: What about the “IOP changes (mean ± SEM) in the untreated eye” value ([3]; 120 min) of the same molecule?
Answer: Its value is −3.3 ± 1.3 mmHg.

Question: What about the “IOP changes (mean ± SEM) in the untreated eye” value ([3]; 180 min) of the same molecule?
Answer: The value was −1.7 ± 0.9 mmHg.

Question: What about the “IOP changes (mean ± SEM) in the untreated eye” value ([3]; 240 min) of the same molecule?
Answer: Its value is −2.1 ± 1.0 mmHg.

Question: And the “IOP changes (mean ± SEM) in the untreated eye” value ([3]; 300 min)?
Answer: Its value is −0.6 ± 0.9 mmHg.

Question: And the “IOP changes (mean ± SEM) in the untreated eye” value ([3]; 360 min)?
Answer: The value was 0.1 ± 0.6 mmHg.

Question: What about the “IOP changes (mean ± SEM) in the untreated eye” value ([3]; 420 min) of the same molecule?
Answer: The value was 0.0 ± 0.6 mmHg.

Question: For `CNCC(O)c1ccc(OC(=O)C(C)(C)C)c(OC(=O)C(C)(C)C)c1` (stereo not drawn) [Dipivefrin], which ocular side effects [1] is on record?
Answer: The ocular side effects was “pain in the eye and in the superciliary arch as well as corneal vascularization and opacification during long-term use”.

Question: Which results are given for `CN(C)C1CCc2c(ccc(O)c2O)C1` (stereo not drawn) [M-7, N,N-dimethyl-5,6-dihydroxy-2-aminotetralin]?
Answer: concentration inducing eye irritation ([2]; in vivo): 0.1%; effect on intraocular pressure [2]: active as well in reducing intraocular pressure

Question: Which “effect on intraocular pressure” value [2] does the source give for `CN(C)C1CCc2cc(O)c(O)cc2C1` (stereo not drawn) [N,N-dimethyl-6,7-dihydroxy-2-aminotetralin] here?
Answer: The value was “gives rise to eye hypotension in the rabbit”.
